Results from article PMC12040169 (PLOS Biology, 2025).

Assay: in vitro
Conditions: human, hela cells, % viability
With `O=c1[nH]c2ncc(-c3ccncc3)nc2n1C1CCCC1` [CBK064972] the viability at 28.5 h, 10 µM was 116%. With `CC(C)NC(=O)NC[C@H]1C[C@@H]2CCN1C[C@@H]2c1cc(-c2ccccc2)nn1C` [CBK289097] the viability at 28.5 h, 10 µM was 84.5%. For `O=[N+]([O-])c1cccc(-c2noc(COc3ccc(Br)cc3Cl)n2)c1` [CBK264452], the viability at 28.5 h, 10 µM was 101%. `C[C@H](Nc1nc(-c2cccc(/C=C/C(=O)O)c2)cnc1N)c1ccccc1` [CBK063754] showed a viability at 28.5 h, 10 µM of 85.2%. `Cc1ccc(-c2ccn(C(C)C(=O)N(C)C)n2)cc1` (centres unmarked) [CBK016069] gave a viability at 28.5 h, 10 µM of 98.4%. For `COc1cccc(-c2n[nH]c3c2C(c2cccnc2)NC3=O)c1` (centres unmarked) [CBK288238], the viability at 28.5 h, 10 µM was 86.3%. For `Cc1ccc(-c2c(N3CCCC3)n[nH]c2C2CC2)cc1` [CBK288192], the viability at 28.5 h, 10 µM was 97.8%. Compound `CN(C)/C=N/c1nc2c(nc(Br)n2C2CC(O)C(CO)O2)c(=O)[nH]1` (centres unmarked) [CBK201319] has a viability at 28.5 h, 10 µM of 84.7%. `Cc1ccc(C)c(S(=O)(=O)NCC(=O)Nc2nsc(-c3ccccc3)n2)c1` [CBK267304] showed a viability at 28.5 h, 10 µM of 97.4%. In the case of `CCN(Cc1ccccc1)c1ccc(C2NC(=O)NC(O)(C(F)(F)F)C2C(=O)c2cccnc2)cc1` (centres unmarked) [CBK264999], the viability at 28.5 h, 10 µM is reported as 91.7%. `NS(=O)(=O)c1ccc(NC(=O)CN2CCC(Cc3ccccc3)CC2)cc1` [CBK266161] gave a viability at 28.5 h, 10 µM of 98.6%. Compound `Cc1nn(C)c(C)c1CC(=O)Nc1cccc(CN2CCCCC2)c1` [CBK304547] has a viability at 28.5 h, 10 µM of 87.4%. `Cc1cnc2[nH]c(C3CCN(C(=O)c4scnc4C)CC3)cc2c1` [CBK284753] showed a viability at 28.5 h, 10 µM of 96.7%. In the case of `Cc1cccc(-c2noc([C@@H]3Cc4[nH]cnc4CN3C(=O)CC(C)(C)CC(=O)O)n2)c1` [CBK288961], the viability at 28.5 h, 10 µM is reported as 95.8%. `COc1ccccc1OCCCN1C(=O)C2(CC(=O)N(C)C2=O)c2cc(F)ccc21` (centres unmarked) [CBK075430] gave a viability at 28.5 h, 10 µM of 88.2%. Work on `Cc1nn(CC(=O)NCC2CC2)c(=O)c2cc3sccc3n12` [CBK284025] yielded a viability at 28.5 h, 10 µM of 94.5%. For `O=C(Nc1ccc(NC(=O)Nc2cccc(Cl)c2)cc1)Nc1cccc(Cl)c1` [CBK267623], the viability at 28.5 h, 10 µM was 93.9%. In the case of `CC(C)c1nccn1CCCn1cncc1-c1cnn(C)c1` [CBK281812], the viability at 28.5 h, 10 µM is reported as 104%. `CCOC(=O)CCNC(C)C1COc2ccccc2O1` (centres unmarked) [CBK074284G] showed a viability at 28.5 h, 10 µM of 101%. For `CC(C)c1ccc(S(=O)(=O)NCc2c(F)ccc(Cl)c2F)cc1` [CBK043484], the viability at 28.5 h, 10 µM was 88.4%. Work on `O=C(O)CC1(O)C(=O)N(Cc2ccccc2)c2ccccc21` (centres unmarked) [CBK286673] yielded a viability at 28.5 h, 10 µM of 104%. With `CC(C)NC(=O)/C(=C/c1c[nH]c2ncccc12)c1ccccc1` [CBK115357] the viability at 28.5 h, 10 µM was 95.8%. For `CC(C)C12CN3CC(C(C)C)(CN(C1)C3c1c[nH]c3ccccc13)C2=O` (centres unmarked) [CBK263740], the viability at 28.5 h, 10 µM was 96.1%. For `O=C(O)c1ccc(S(=O)(=O)N(CC2CC=CCC2)CC2CCCO2)cc1` (centres unmarked) [CBK286685], the viability at 28.5 h, 10 µM was 101%. `CC(CNc1cc(=O)n2ccccc2n1)CN1CCCC1` (centres unmarked) [CBK305270] gave a viability at 28.5 h, 10 µM of 99.1%. Compound `O=C(CCN1CCOCC1)Nc1ccc(Cl)cc1` [CBK263820] has a viability at 28.5 h, 10 µM of 98.8%. Compound `Cc1cn(CC(=O)N2CCCC3(CCN(C(=O)c4ccoc4)C3)C2)c(=O)[nH]c1=O` (centres unmarked) [CBK131634] has a viability at 28.5 h, 10 µM of 104%. With `Cc1cccc(Nc2nc(N)nc(CSc3nccn3C)n2)c1` [CBK266105] the viability at 28.5 h, 10 µM was 98.7%. With `O=C(O)C1=CC(c2ccccc2)=NS(=O)(=O)N1` [CBK286828] the viability at 28.5 h, 10 µM was 108%. `O=C(O)c1ccc(C(=O)O)c2c(C(=O)O)cccc12` [CBK261356] showed a viability at 28.5 h, 10 µM of 82.3%. `CCCCN(C)c1c(C)nc2c(OCC(=O)c3ccc(F)cc3)cccn12` [CBK147172] showed a viability at 28.5 h, 10 µM of 93.1%. With `Cc1cc(C)cc(C(=O)NC(=S)Nc2sc(C)c(C)c2C#N)c1` [CBK267089] the viability at 28.5 h, 10 µM was 92.1%. Work on `CCc1nc(CN2CCCC(NCc3ccc(C(N)=O)cc3)C2)no1` (centres unmarked) [CBK305373] yielded a viability at 28.5 h, 10 µM of 94.2%. With `Cc1ccc(OC(C)C(=O)NNC(=O)c2ccc([N+](=O)[O-])cc2)cc1` (centres unmarked) [CBK269065] the viability at 28.5 h, 10 µM was 104%. In the case of `CSc1nnc(CCCNC(=O)c2cccc(C#N)c2)n1CC(C)C` [CBK306023], the viability at 28.5 h, 10 µM is reported as 108%. With `COc1ccc(Cl)cc1N1CCN(Cc2ccc(C(C)C)cc2)CC1` [CBK126407] the viability at 28.5 h, 10 µM was 97.6%. With `CC(C)n1c(=O)n(CC(=O)N2CCc3ccccc32)c2cccnc21` [CBK283855] the viability at 28.5 h, 10 µM was 103%. For `Cc1ccc(S(=O)(=O)NCCC(=O)NO)cc1` [CBK023472], the viability at 28.5 h, 10 µM was 110%. `CSc1nnc(CC2CCN(C(=O)c3cc(C)c(C)cc3C)CC2)n1C` [CBK307467] gave a viability at 28.5 h, 10 µM of 99%. `O=C(CN1C(=O)N2CCCN=C2c2ccc(Cl)cc21)NC1CC1` [CBK284388] showed a viability at 28.5 h, 10 µM of 89%. Compound `CCOC(=O)c1cnc2c(C)cc(Cl)cc2c1NCCN(C)C` [CBK264800] has a viability at 28.5 h, 10 µM of 90.7%. With `Cc1c(-c2ccnc(N)n2)nnn1-c1ccc(Cl)cc1Cl` [CBK018733] the viability at 28.5 h, 10 µM was 65.5%. For `CS(=O)(=O)c1ccccc1C(=O)n1ccn(-c2ccc(Oc3ccccc3)cc2)c1=O` [CBK106647], the viability at 28.5 h, 10 µM was 80.8%. `COc1cc(Br)c(OC)c(C(=O)N(C)Cc2cnn(C)c2)c1` [CBK244011] showed a viability at 28.5 h, 10 µM of 102%.
